Results as given in publication PMC4648050, “Discovery of Inhibitors of Trypanosoma brucei by Phenotypic Screening of a Focused Protein Kinase Library” (Chemmedchem, 2015).
Entries after “also recorded” stand apart in the source; their conditions may differ. Like-named read-outs stand apart in the source and are kept apart here.

Legend:
[1] = test system: T. brucei bloodstream-stage cells; test: Static–cidal (SC) assay; format: cell-based, Trypanosoma brucei brucei; conditions: for EC50: 48 h
Procedure: Determination of cidality against T. brucei bloodstream-stage cells was performed using a static–cidal (SC) assay as previously reported.[26] Briefly, bloodstream-form trypanosomes were seeded into 384-well plates at 4×10^5 mL^−1 (50 μL per well), followed by immediate addition of resazurin (50 μM final) to one of the plates, and all plates were incubated at 37 °C, 5 % CO2. After 4 h the t0 plate was read using a PerkinElmer Victor 3 plate reader (λex=528 nm, λem=590 nm). The second plate was processed in the same manner 20 h later, and at 44 h the last plate was processed. The minimum cidal concentration (MCC) is defined as the lowest concentration of drug that results in a decrease of resorufin signal over time. For dose–response curves from this assay either a monophasic or a biphasic equation was used, depending on which one provided the best fit. For monophasic fits, the following four-parametric equation [Eq. (1)] was used:
in which A=percent inhibition at bottom, B=percent inhibition at top, C=EC50, D=slope, x=inhibitor concentration, and y=percent inhibition. Equation (2) was used for biphasic fits:
for which A=percent inhibition at mid-plateau, B=slope, C=log[SC EC50(1)], D=log[SC EC50(2)]. Thus SC EC50(1) is the EC50 for the first phase of the curve, and SC EC50(2) is that for the second phase. Inhibition at the bottom of the curve is fixed at 0 % and at the top, 100 %.

[2] = In vivo pharmacokinetics in mice; set-up: species or system female NMRI mice; conditions: for Tmax: female, NMRI; for Tmax / Cmax / half-life / AUC(0-t): mouse, whole blood, blood; for AUC(0-t): read-out: AUC(0–8) (converted)
Procedure: In vivo pharmacokinetics in mice: Compounds 1 and 28 were dosed orally by gavage as a solution at 5 mg free base per kg or 20 mg free base per kg, respectively (dose volume: 5 or 10 mL kg^−1, dose vehicle: 5 % DMSO, 40 % PEG400, 55 % distilled H2O) to female NMRI mice (n=3). Compounds 28, 38, and 56 were dosed as a bolus solution intraperitoneally at 10 (56) or 20 (28 and 38) mg free base per kg (dose volume: 10 mL kg^−1, dose vehicle: 5 % DMSO, 40 % PEG400, 55 % sterile H2O) to female NMRI mice (n=3). Female NMRI mice were chosen, as these represent the sex and strain used for the stage-1 and stage-2 HAT efficacy models. Blood samples were taken from each mouse at 5 (i.p. only), 15 and 30 min, 1, 2, 4, 6 and 8 h post-dose and mixed with two volumes of distilled H2O. After suitable sample preparation, the concentration of each compound in blood was determined by UPLC–MS/MS using a Quattro Premier XE (Waters, USA). Pharmacokinetic parameters were derived from the mean blood concentration time curve using PKsolutions software ver. 2.0 (Summit Research Services, USA).

[3] = Plasma protein binding (equilibrium dialysis); format: in vitro ADME; conditions: mouse plasma
Procedure: Plasma protein binding experiments: In brief, a 96-well equilibrium dialysis apparatus was used to determine the free fraction in plasma for each compound (HT Dialysis LLC, Gales Ferry, CT, USA). Membranes (12-14 kDa cutoff) were conditioned in deionised H2O for 60 min, followed by conditioning in 80:20 deionised H2O/EtOH for 20 min, and then rinsed in isotonic buffer before use. Female CD1 mouse plasma was removed from the freezer and allowed to thaw on the day of experiment. Thawed plasma was then centrifuged (Allegra […], Beckman Coulter, USA), spiked with test compound (10 μg g^-1), and 150 μL aliquots (n=6 replicate determinations) loaded into the 96-well equilibrium dialysis plate. Dialysis against isotonic buffer (150 μL) was carried out for 5 h in a temperature-controlled incubator at ∼37 °C (Barworld Scientific Ltd., UK) using an orbital microplate shaker at 125 rpm (Barworld Scientific). At the end of the incubation period, aliquots of plasma or buffer were transferred to micronic tubes (Micronic B.V., the Netherlands), and the composition in each tube was balanced with control fluid such that the volume of buffer to plasma is the same. Sample extraction was performed by the addition of 400 μL MeCN containing an appropriate internal standard. Samples were allowed to mix for 1 min and then centrifuged at 3000 rpm in 96-well blocks for 15 min (Allegra […], Beckman Coulter, USA). All samples were analysed by UPLC-MS/MS on a Quattro Premier XE Mass Spectrometer (Waters Corp.). The unbound fraction was determined as the ratio of the peak area in buffer to that in plasma.

[4] = ip, 20 mg kg^−1, female NMRI mice
[5] = po, 20 mg kg^−1, female NMRI mice
[6] = po, 5 mg kg^−1, female NMRI mice

Structure (SMILES)	EC50 ([1]; Trypanosoma brucei, static cidal EC50, first site/phase, read-out: SC EC50(1)) [µM]	EC50 ([1]; Trypanosoma brucei, static cidal EC50, second site/phase, read-out: SC EC50(2)) [µM]	MCC ([1]; Trypanosoma brucei, static–cidal assay in triplicate, read-out: MCC (minimal cidal concentration)) [µM]	mode of antiparasitic effect (in words) ([1]; text and figure legend, at concentrations tested)	time to reach Cmax ([2]; dosed orally, 20 mg kg^−1) [min]	Tmax ([2]; ip, 20 mg/kg, 20 mg kg^−1, female NMRI mice) [h]	Tmax ([2]; po, 20 mg/kg, 20 mg kg^−1, female NMRI mice) [h]	Cmax [2, 4] [ng/mL]	half-life [2, 4] [h]	AUC(0-t) [2, 4] [ng·h/mL]	Cmax [2, 5] [ng/mL]	half-life [2, 5] [h]	AUC(0-t) [2, 5] [ng·h/mL]	fraction unbound at 5 h, 10 μg g^−1 ([3]; female, CD1, equilibrium dialysis, read-out: PPB)	protein binding (unbound) [3] [% unbound]	PPB ([3]; equilibrium dialysis) [% free]	Tmax ([2]; po, 5 mg/kg, 5 mg kg^−1, female NMRI mice) [h]	Cmax [2, 6] [ng/mL]	half-life [2, 6] [h]	AUC(0-t) [2, 6] [ng·h/mL]
O=c1[nH]c2ncc(-c3ccccc3CO)nc2n1C1CCCCC1 [Compound 28]	0.1	> 50	> 50	growth-slowing or static behaviour; also recorded: growth-slowing	15	0.083	0.25	5200	1.2	3830	910	1.7	1150	0.072	7.2	7.2	–	–	–	–
CC(c1ccccc1)n1c(=O)[nH]c2ncc(-c3ccc(F)cc3)nc21 (stereo not drawn) [Compound 1]	–	–	–	–	–	–	–	–	–	–	–	–	–	–	0.3	–	~2	110	3	600
